Test results reported in PubChem BioAssay AID1259418 (Broad Institute, 2018).
Several values for one entry are separate records, joined by “and”; a condition that tells them apart may be missing. Equal entries are not always repeated. Inconclusive results are not listed. Activity calls are given as the source filed them.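 Rule for the calls: active = fitted half-maximal concentration of signal decrease at or below twice the sample's top tested concentration; inconclusive = flat curve between -70 and -30 percent, or poor fit; inactive = flat within 30 percent, signal rise, or potency above limit.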

The compounds below were run against T. gondii ME49Luc in IFN-y HeLa, luciferase, 72 h (assay: T. gondii growth inhibition with IFN-gamma, dose response, cell-based, ME49Luc, HeLa, luciferase, 72 h (AID 1259418)).
For COc1cccc(-c2ccc3c(c2)[C@@H]2[C@@H](CCN2C(=O)c2ccccc2F)[C@H](CO)N3C)c1, the AC50 was 14.4 µM and 10.9 µM.
Work on COc1ccccc1-c1ccc([C@H]2[C@H](CO)N[C@@H]2C#N)cc1 yielded an AC50 of 24 µM.
With CCc1cc(C2CCCN2C(=O)c2cc(C(F)(F)F)nn2C)on1 (stereo not drawn) the AC50 was > 39 µM (inactive).
In the case of Cc1cc(Nc2cc(N3CCN(C)CC3)nc(Sc3ccc(NC(=O)C4CC4)cc3)n2)n[nH]1, the AC50 is reported as 13.8 µM.
In the case of Cc1cccc(S(=O)(=O)N2C[C@H]3[C@@H](c4ccccc42)[C@@H](CO)N3C(=O)c2ccccc2)c1, the AC50 is reported as > 39 µM (inactive).
CCN(CCCNC(=O)CC1Nc2c3ccccc3nc(=S)n2C1=O)c1ccccc1 (stereo not drawn) was tested, and the AC50 was > 39 µM (inactive).
With CCOc1ccc(-c2nc(CN3CCN(C(=O)Nc4ccc(C)cc4Cl)CC3)c(C)o2)cc1 the AC50 was 24.1 µM.
Work on Cc1ccc(CSC2=Nc3ccccc3C3=NC(CCC(=O)NCc4cccs4)C(=O)N23)c(C)c1 (stereo not drawn) yielded an AC50 of 21.4 µM.
For CN1c2ccc(C3=CCCCC3)cc2[C@@H]2[C@@H](CCN2C(=O)c2ccc3c(c2)OCO3)[C@@H]1CO, the AC50 was 19.3 µM.
COc1cc(NC(=O)Nc2ccc(-c3nc(-c4cc(C)ccc4C)co3)cc2)cc(OC)c1OC showed an AC50 of 14.5 µM.
In the case of Clc1ccc(-c2nc(N3CCC(N4CCCCC4)CC3)c3ccccc3n2)cc1, the AC50 is reported as 18.4 µM.
O=C(CC1N=C2c3ccccc3N=C(SCc3ccc(F)cc3)N2C1=O)NCc1ccco1 (stereo not drawn) showed an AC50 of 20.5 µM.
In the case of CCOc1ccc(N(Cc2nc(-c3ccc(C)cc3)oc2C)S(=O)(=O)c2cccs2)cc1, the AC50 is reported as 5.31 µM.
With CCc1cnc(N2[C@@H](C#N)[C@@H](c3ccc(C4=CCCCC4)cc3)[C@@H]2CO)s1 the AC50 was > 20 µM (inactive) and 8.88 µM.
Cc1ccc(NC(=O)c2cc(-c3cnc(-c4ccccc4)nc3)cn2CC2CC2)cn1 gave an AC50 of 10.9 µM.
For O=C(c1ccco1)N1CCC2(CC1)Nc1ccc(Cl)cc1-n1cccc12, the AC50 was 32.1 µM.
Cc1ccccc1-c1ccc([C@H]2[C@H](CO)N3CCCCN(S(=O)(=O)Cc4ccccc4)C[C@@H]23)cc1 was tested, and the AC50 was 16.5 µM.
In the case of O=C(Cc1ccncc1)N1CCCCN2[C@H](CO)[C@H](c3ccc(C#Cc4ccccc4F)cc3)[C@@H]2C1, the AC50 is reported as 8.53 µM.
CC(C)n1ncc(NC(=O)Cn2ccc(-c3ccc(C(F)(F)F)cc3)n2)n1 gave an AC50 of 24.3 µM.
With O=C(NCCc1csc(-c2ccccc2)n1)[C@H]1CCCN1C(=O)CCc1ccccc1 the AC50 was > 39 µM (inactive).
For COC[C@]12CCC[C@@H]1CN(S(=O)(=O)c1cccc(OC)c1)C2, the AC50 was 36.2 µM.
COc1ccc(-c2nc(Cn3nnc(-c4nc(-c5ccc(OC)c(OC)c5)no4)c3C)c(C)o2)cc1 showed an AC50 of 20.6 µM.
O=C(Nc1ccc(F)cc1)N1CC(=O)N2[C@H](C1)[C@H](c1ccc(-c3cccc(F)c3)cc1)[C@@H]2CO showed an AC50 of 17.9 µM.
Work on CCOc1ccccc1-c1nc(CN(c2ccc(C)cc2)S(=O)(=O)c2cccs2)c(C)o1 yielded an AC50 of 11.2 µM.
For COc1cccc(N(Cc2nc(-c3ccccc3)oc2C)S(=O)(=O)c2ccccc2C)c1, the AC50 was 5.46 µM.
Compound COc1ccc(-n2c(C)c([N+](=O)[O-])c3ccc(O)cc32)cc1 has an AC50 of 1.41 µM.
Work on COc1cc([C@@H]2c3cc4c(cc3C(OC3OC5COC(C)OC5C(O)C3O)C3OCC(=O)[C@@H]32)OCO4)cc(OC)c1O (stereo partly drawn) yielded an AC50 of 8.96 µM.
With Cc1oc(-c2ccccc2)nc1CSc1nc2c(c(=O)[nH]1)CN(Cc1ccccc1)CC2 the AC50 was 15.4 µM.
In the case of COc1ccc(-c2nc(NCCCN3CCC(N4CCCCC4)CC3)c3ccccc3n2)cc1, the AC50 is reported as 31.3 µM.
COc1ccccc1NC(=O)Nc1ccc(-c2nc(-c3ccc(C)cc3C)co2)cc1 was tested, and the AC50 was 31.9 µM.
With O=C1CCc2cc(S(=O)(=O)NCc3ccco3)cc3c2N1CCC3 the AC50 was > 39 µM (inactive).
In the case of Cc1cccc(S(=O)(=O)N2CCc3nc(-c4cnn(C)c4)nc(NC4CC4)c3C2)c1, the AC50 is reported as 19 µM.
With CCOc1ccc(-c2nc(CN3CCN(C(=O)Nc4ccc(Cl)cc4)CC3)c(C)o2)cc1 the AC50 was 5.17 µM.
In the case of O=C(Nc1ccc2c(c1)OCO2)N1C[C@@H]2N[C@H](C1)C2c1ccc(C=Cc2ccccc2)cc1 (stereo partly drawn), the AC50 is reported as 4.2 µM and 3.84 µM.
With CC(C)(O)CC(=O)NCCn1ccc2ncnc(Nc3ccc(Oc4cccc(C(F)(F)F)c4)c(Cl)c3)c21 the AC50 was 24.1 µM.
Cc1ccc(-c2nc(CN3CCN(C(=O)Nc4ccc(F)cc4)CC3)c(C)o2)cc1 showed an AC50 of 33.3 µM.
With CCc1nc(OCC(=O)Nc2ccc(F)c(Cl)c2)c2ccccc2n1 the AC50 was > 39 µM (inactive).
In the case of CCN1CCCC1CNc1nc(-c2ccc(OC)cc2)nc2ccccc12 (stereo not drawn), the AC50 is reported as 15.1 µM.
With CCCNC(=O)N1CC(=O)N2[C@@H](CO)[C@@H](c3ccc(C#Cc4cccc(OC)c4)cc3)[C@@H]2C1 the AC50 was 19.2 µM.
COCCN(C)C(=O)c1cc(-c2ccn(-c3ccc(OC)cc3)n2)n2ccccc12 gave an AC50 of 22.3 µM.
In the case of N#C[C@H]1[C@H](c2ccc(C#Cc3ccccc3F)cc2)[C@@H](CO)N1C(=O)c1cccnc1, the AC50 is reported as > 39 µM (inactive).
Compound COc1ccc(Cc2nnc(NC(=O)CC(C)C)s2)cc1 has an AC50 of 11.3 µM.
With COCC(=O)N1[C@H](C#N)[C@H](c2ccc(C#Cc3ccccc3F)cc2)[C@@H]1CO the AC50 was > 39 µM (inactive).
In the case of COc1ccc(CNC2=NCCNC23CCN(S(=O)(=O)c2ccc(C)c(C)c2)CC3)cc1, the AC50 is reported as > 39 µM (inactive).
N#C[C@H]1[C@H](c2ccc(-c3cccc(F)c3)cc2)[C@H](CO)N1C(=O)NC1CCCC1 gave an AC50 of 18.9 µM.
Work on O=C(C[C@H]1CC[C@H]2[C@@H](COC[C@H](O)CN2S(=O)(=O)c2ccccc2)O1)NCC1CCCCC1 yielded an AC50 of 20.8 µM.
For CCCNC(=O)N1C[C@@H]2N[C@H](C1)C2c1ccc(-c2cccc(F)c2)cc1 (stereo partly drawn), the AC50 was 18.2 µM.
In the case of COc1ccc(S(=O)(=O)N(C)C[C@H]2Oc3c(NC(=O)c4nc5ccccc5s4)cccc3C(=O)N([C@@H](C)CO)C[C@@H]2C)cc1, the AC50 is reported as 1.77 µM and 0.196 µM.
For O=C(CCC1N=C2c3ccccc3N=C(SCc3cccc(Cl)c3)N2C1=O)NCc1cccs1 (stereo not drawn), the AC50 was 5.48 µM.
Compound COc1ccc(C#Cc2ccc([C@H]3[C@@H](CO)N4C(=O)CN(C(=O)NC(C)C)C[C@@H]34)cc2)cc1 has an AC50 of 22.3 µM.
COc1cccc(-c2nc3c(s2)CN(C(=O)Nc2ccc(C)c(F)c2)CC3)c1 gave an AC50 of 13.1 µM.
In the case of O=C(NCCCN1CCCC1)C1CCN(Cc2cc3ccccc3n2Cc2ccccc2)CC1, the AC50 is reported as 23 µM.
In the case of Cc1ccc(-c2nc(CN(c3ccccc3)S(=O)(=O)c3cccs3)c(C)o2)cc1, the AC50 is reported as 10.8 µM.
CC(C)c1cccc(NC(=O)C[C@H]2CC[C@H]3[C@@H](COc4ccc(NS(=O)(=O)c5ccccc5Cl)cc4C(=O)N3C)O2)c1 gave an AC50 of 22.6 µM.
COc1ccccc1CNC1=NCCNC12CCN(S(=O)(=O)c1ccc(Cl)s1)CC2 gave an AC50 of 17 µM.
O=C(CC1N=C2c3ccccc3N=C(SCc3cccc(Cl)c3)N2C1=O)NCCc1ccccc1 (stereo not drawn) gave an AC50 of 19.3 µM.
For Cc1ccc(-c2cc(O)c3c(c2)CN(C(=O)CCN2CCCO2)CCO3)s1, the AC50 was 13.5 µM.
For Cc1ccc(C)c(S(=O)(=O)N2CCC3(CC2)c2ncc(-c4cccc(F)c4)n2CCN3C)c1, the AC50 was 20.9 µM.
With COc1ccc(-c2nc(CN(c3ccccc3OC)S(=O)(=O)c3cccs3)c(C)o2)cc1 the AC50 was 13.7 µM.
CS(=O)(=O)N1CCC(C(=O)NCCc2csc(-c3cccs3)n2)CC1 was tested, and the AC50 was > 39 µM (inactive).
COc1ccc(-c2nc(N3CCC(N4CCCCC4)CC3)c3ccccc3n2)cc1 was tested, and the AC50 was 10.6 µM.
In the case of Cc1ccccc1Cn1c(CN2CCC(C(=O)NCCCN3CCCC3)CC2)cc2ccccc21, the AC50 is reported as 18.2 µM.
Cc1oc(-c2cccc(Cl)c2)nc1CN(c1ccccc1)S(=O)(=O)c1ccccc1 gave an AC50 of 6.63 µM.
With CCOc1ccc(N(Cc2nc(-c3ccc(C)cc3)oc2C)S(=O)(=O)c2ccccc2)cc1 the AC50 was > 39 µM (inactive).
In the case of COc1cccc(NC(=O)N2CCN(Cc3nc(-c4ccc(C)cc4)oc3C)CC2)c1, the AC50 is reported as 22 µM.
Cc1cc(C(=O)N2CCC(c3cc4c(ncn4C)c(NCC4CC4)n3)CC2)ccc1Cl gave an AC50 of 23.1 µM.
With CCc1nc(OCC(=O)NCc2ccc(SC)cc2)c2ccccc2n1 the AC50 was > 39 µM (inactive).
For COc1ccccc1-c1nc(CN(c2ccccc2OC)S(=O)(=O)c2ccccc2C)c(C)o1, the AC50 was 6.87 µM.
Work on CO[C@@H]1CCN(S(=O)(=O)N(C)C)C[C@@H]1Cc1cccc(C)c1 yielded an AC50 of 23.5 µM.
Work on COc1cccc(CNC2=NCCNC23CCN(S(=O)(=O)c2ccc4c(c2)CCCC4)CC3)c1 yielded an AC50 of 16.3 µM.
With CCOc1ccccc1-c1nc(CN(c2ccccc2OC)S(=O)(=O)c2ccccc2)c(C)o1 the AC50 was 7.68 µM.
For CN1c2ccc(-c3ccc(C#N)cc3)cc2[C@@H]2[C@@H](CCN2S(=O)(=O)c2ccc(F)cc2)[C@@H]1CO, the AC50 was 15.8 µM.
Compound COc1ccc(-c2nc(CN(c3ccccc3OC)S(=O)(=O)c3ccc(OC)cc3)c(C)o2)cc1 has an AC50 of 5.84 µM.
Compound Clc1ccc(-c2nc(NC3CCCC3)c3ccccc3n2)cc1 has an AC50 of 17.6 µM.
In the case of CCCNc1nc(-c2ccccc2Cl)nc2ccccc12, the AC50 is reported as 23.9 µM.
In the case of N#C[C@@H]1[C@@H](c2ccc(C3=CCCCC3)cc2)[C@@H](CO)N1S(=O)(=O)c1ccccc1, the AC50 is reported as > 39 µM (inactive) and 5.52 µM.
Work on C=CCN1CCC2(CC1)CC(NCc1ccc(C)s1)c1ccccc1O2 (stereo not drawn) yielded an AC50 of 12.1 µM.
Cc1ccc(CNC2=NCCNC23CCN(S(=O)(=O)c2ccc(CC(C)C)cc2)CC3)cc1 was tested, and the AC50 was 7.71 µM.
COc1cccc(NC(=O)N2CC(=O)N3[C@H](CO)[C@@H](c4ccc(C#CCC5CCCC5)cc4)[C@H]3C2)c1 was tested, and the AC50 was > 39 µM (inactive).
Compound CC(C)CCN1Cc2c(C(=O)NC3CCCCC3)ncn2-c2ccccc2S1(=O)=O has an AC50 of 20.6 µM.
Work on N#Cc1ccc(-c2ccc([C@@H]3[C@@H](CO)N4C(=O)CNC[C@H]34)cc2)cc1 yielded an AC50 of 11.8 µM.
Work on N#C[C@H]1[C@@H](c2ccc(-c3cccnc3)cc2)[C@@H](CO)N1C(=O)Nc1ccc(F)cc1 yielded an AC50 of 12.7 µM.
For CCN1CCCC1CNC(=O)C1CCN(Cc2cc3ccccc3n2Cc2ccc(F)cc2)CC1 (stereo not drawn), the AC50 was 21.2 µM.
In the case of O=C(C[C@H]1CC[C@H]2[C@@H](COC[C@@H](O)CN2Cc2cc(F)ccc2F)O1)NCc1ccc(Oc2ccccc2)cc1, the AC50 is reported as 27.3 µM.
With COc1ccc(-c2nc(CN(c3ccccc3)S(=O)(=O)c3ccccc3)c(C)o2)cc1 the AC50 was 9.08 µM.
In the case of O=C(NC1CCCCC1)N1C[C@@H]2N[C@H](C1)C2c1ccc(-c2ccc(F)cc2)cc1 (stereo partly drawn), the AC50 is reported as 22.7 µM.
O=C(Nc1ccc(-c2nc(-c3ccccc3)co2)cc1)c1cccc(F)c1 gave an AC50 of 30.6 µM.
With CCC(C)Nc1nc(-c2ccc(OC)cc2)nc2ccccc12 (stereo not drawn) the AC50 was > 39 µM (inactive).
Work on CN(C)C(=O)c1ccc(-c2ccc3c(c2)[C@@H]2[C@@H](CCN2C(=O)C2CCCC2)[C@@H](CO)N3C)cc1 yielded an AC50 of 21.1 µM.
Compound N#C[C@H]1N[C@@H](CO)[C@@H]1c1ccc(C#CC2CCCCC2)cc1 has an AC50 of 19.1 µM.
Work on CCc1ccccc1-c1cccc(-n2cnnc2)c1 yielded an AC50 of 19.9 µM.
In the case of CCN1CCN(c2nc(-c3ccc(OC)cc3)nc3ccccc23)CC1, the AC50 is reported as 17.4 µM.
In the case of CCOc1ccccc1-c1nc(CN(c2ccccc2OC)S(=O)(=O)c2ccccc2C)c(C)o1, the AC50 is reported as 8.83 µM.
